Laboratory results taken from patent US20250340591A1, “COMPOSITION FOR PREVENTING OR TREATING INFLAMMATORY BOWEL DISEASE CONTAINING NOVEL COMPOUND” (ANYGEN CO., LTD., priority 2021, published 2025).

Columns and labels:
[1] = tested on: ulcerative colitis-induced GPR39 deficient mice (Gpr39−/−); assay: DSS-induced ulcerative colitis in GPR39 deficient mice; format: in vivo
Procedure: In order to confirm the effect of HKFY-34 in an inflammatory bowel disease model using GPR39 as a target substance, a disease model of ulcerative colitis was prepared using GPR39 deficient mice (GPR39 knock out (KO), Gpr39^−/−). At this time, wild type mice born from a litter were set as a control group for each treated group of GPR39 deficient mice.
Specifically, an animal model of ulcerative colitis was prepared by feeding GPR39 deficient mice (Lexicon pharmaceuticals) and wild type mice with water containing 3% DSS in the same manner as in Experimental Example 7. GPR39 KO mice fed with only DSS (vehicle+3% DSS) were set as a negative control group, and GPR39 KO mice administered with HKFY-34 (10 mg/kg) (HKFY-34 10 mg/kg+3% DSS) were set as a test group. Intraperitoneal administration was performed once a day for 5 days.

GPR39 = target: T1, GPR39 (Homo sapiens, UniProt O43194); assay: luciferase assay system (SRE luciferase reporter gene, CV-1 cells expressing GPR39); format: cell-based; design: expressed in transfected cells; host or cells: CV-1 fibroblast cell line (Korea Cell Line Bank), adenoviral transduction at 50 MOI
T1 sequence (O43194 1-453): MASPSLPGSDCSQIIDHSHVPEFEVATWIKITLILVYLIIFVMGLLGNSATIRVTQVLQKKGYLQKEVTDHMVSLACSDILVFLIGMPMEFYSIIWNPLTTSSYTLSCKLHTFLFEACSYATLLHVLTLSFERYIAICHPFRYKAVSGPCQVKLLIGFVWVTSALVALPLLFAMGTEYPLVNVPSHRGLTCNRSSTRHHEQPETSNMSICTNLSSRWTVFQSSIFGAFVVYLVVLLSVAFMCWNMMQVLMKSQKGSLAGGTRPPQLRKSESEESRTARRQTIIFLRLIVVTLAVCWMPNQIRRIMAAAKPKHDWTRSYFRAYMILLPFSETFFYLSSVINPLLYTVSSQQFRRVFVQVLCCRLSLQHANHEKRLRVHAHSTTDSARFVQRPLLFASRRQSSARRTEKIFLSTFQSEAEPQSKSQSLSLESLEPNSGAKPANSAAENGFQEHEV

motilin receptor (MTLR) = target: T2, motilin receptor (MTLR) (Homo sapiens, UniProt O43193); assay: luciferase assay system, ghrelin receptor family selectivity; format: cell-based; details: compared with intrinsic ligand, FIG. 74
T2 construct: expressed in transfected cells
Procedure: (§1) In addition, through the activity test of the HKFY derivatives for similar receptors to GPR39, ghrelin receptor family (ghrelin receptor (GHSR), motilin receptor (MTLR), neurotensin receptor (NTSR1 & NTSR2), neuromedin U receptor (NMU1 & NMU2), TRH (thyrotropin releasing hormone) receptor (TRHR)), the selectivity and specificity for the GPR39 receptor were confirmed.
(§2) Specifically, the degree of activity between the intrinsic ligand and HKFY-34 for each receptor was analyzed using a luciferase assay system (FIG. 74).

[2] = target: T3, neurotensin receptor (NTSR2) (Homo sapiens, UniProt O95665); assay: as above; format: cell-based; details: compared with intrinsic ligand, FIG. 74
T3 construct: expressed in transfected cells
Procedure: as §1, §2

[3] = target: T4, TRH (thyrotropin releasing hormone) receptor (TRHR) (Homo sapiens, UniProt P34981); assay: as above; format: cell-based; details: compared with intrinsic ligand, FIG. 74
T4 construct: expressed in transfected cells
T4 sequence (P34981 1-398): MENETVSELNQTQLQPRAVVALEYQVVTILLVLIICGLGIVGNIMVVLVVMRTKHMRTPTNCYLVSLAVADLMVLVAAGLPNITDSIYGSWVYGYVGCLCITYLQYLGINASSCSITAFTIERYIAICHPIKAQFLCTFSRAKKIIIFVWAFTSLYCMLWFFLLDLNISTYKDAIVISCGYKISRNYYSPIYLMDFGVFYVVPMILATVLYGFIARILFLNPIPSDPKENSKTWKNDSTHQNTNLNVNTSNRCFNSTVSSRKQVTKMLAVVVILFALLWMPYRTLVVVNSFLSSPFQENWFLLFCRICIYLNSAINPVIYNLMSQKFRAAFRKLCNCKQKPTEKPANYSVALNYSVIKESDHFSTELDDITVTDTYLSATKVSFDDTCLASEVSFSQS
Procedure: as §1, §2

[4] = target: T5, neuromedin U receptor (NMU2) (Homo sapiens, UniProt Q9GZQ4); assay: as above; format: cell-based; details: compared with intrinsic ligand, FIG. 74
T5 construct: expressed in transfected cells
Procedure: as §1, §2

[5] = target: T6, neuromedin U receptor (NMU1) (Homo sapiens, UniProt Q9HB89); assay: as above; format: cell-based; details: compared with intrinsic ligand, FIG. 74
T6 construct: expressed in transfected cells
T6 sequence (Q9HB89 1-426): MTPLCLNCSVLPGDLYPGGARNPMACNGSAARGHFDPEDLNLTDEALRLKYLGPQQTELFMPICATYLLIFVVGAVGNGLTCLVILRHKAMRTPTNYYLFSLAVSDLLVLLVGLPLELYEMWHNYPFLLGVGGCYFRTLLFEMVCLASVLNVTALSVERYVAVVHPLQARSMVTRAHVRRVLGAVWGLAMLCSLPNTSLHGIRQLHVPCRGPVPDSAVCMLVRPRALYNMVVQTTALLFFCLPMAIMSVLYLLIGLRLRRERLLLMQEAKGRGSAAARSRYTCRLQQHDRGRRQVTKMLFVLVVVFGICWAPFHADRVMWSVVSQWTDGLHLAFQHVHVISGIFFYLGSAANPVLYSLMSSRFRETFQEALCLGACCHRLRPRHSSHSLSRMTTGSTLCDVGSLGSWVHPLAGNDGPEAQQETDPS
Procedure: as §1, §2

[6] = target: T7, neurotensin receptor (NTSR1) (Homo sapiens, UniProt P30989); assay: as above; format: cell-based; details: compared with intrinsic ligand, FIG. 74
T7 construct: expressed in transfected cells
Procedure: as §1, §2

ghrelin receptor (GHSR) = target: T8, ghrelin receptor (GHSR) (Homo sapiens, UniProt Q92847); assay: as above; format: cell-based; details: compared with intrinsic ligand, FIG. 74
T8 construct: expressed in transfected cells
Procedure: as §1, §2

T2 sequence (O43193 whole entry, species assumed): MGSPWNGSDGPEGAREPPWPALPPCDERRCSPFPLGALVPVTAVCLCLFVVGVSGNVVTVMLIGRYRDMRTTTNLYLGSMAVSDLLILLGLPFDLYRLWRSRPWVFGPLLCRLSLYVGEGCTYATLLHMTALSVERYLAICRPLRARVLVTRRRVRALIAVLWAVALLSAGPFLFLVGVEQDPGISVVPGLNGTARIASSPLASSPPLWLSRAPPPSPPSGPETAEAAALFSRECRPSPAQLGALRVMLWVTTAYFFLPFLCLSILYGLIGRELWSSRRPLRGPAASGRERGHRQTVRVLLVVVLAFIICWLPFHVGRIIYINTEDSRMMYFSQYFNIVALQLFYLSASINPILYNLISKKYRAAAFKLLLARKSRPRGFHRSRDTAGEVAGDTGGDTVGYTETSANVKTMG
T8 sequence (Q92847 whole entry, species assumed): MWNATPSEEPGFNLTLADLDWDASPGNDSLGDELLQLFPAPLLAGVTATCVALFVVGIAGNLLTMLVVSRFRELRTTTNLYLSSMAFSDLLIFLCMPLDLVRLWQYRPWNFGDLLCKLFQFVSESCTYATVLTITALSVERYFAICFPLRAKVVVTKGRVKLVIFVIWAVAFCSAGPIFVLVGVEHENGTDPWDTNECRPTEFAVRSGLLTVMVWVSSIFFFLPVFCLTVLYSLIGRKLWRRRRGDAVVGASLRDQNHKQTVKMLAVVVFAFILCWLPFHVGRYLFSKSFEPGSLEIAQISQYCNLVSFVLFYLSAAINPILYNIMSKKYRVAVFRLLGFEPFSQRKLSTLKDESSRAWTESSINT
T5 sequence (Q9GZQ4 whole entry, species assumed): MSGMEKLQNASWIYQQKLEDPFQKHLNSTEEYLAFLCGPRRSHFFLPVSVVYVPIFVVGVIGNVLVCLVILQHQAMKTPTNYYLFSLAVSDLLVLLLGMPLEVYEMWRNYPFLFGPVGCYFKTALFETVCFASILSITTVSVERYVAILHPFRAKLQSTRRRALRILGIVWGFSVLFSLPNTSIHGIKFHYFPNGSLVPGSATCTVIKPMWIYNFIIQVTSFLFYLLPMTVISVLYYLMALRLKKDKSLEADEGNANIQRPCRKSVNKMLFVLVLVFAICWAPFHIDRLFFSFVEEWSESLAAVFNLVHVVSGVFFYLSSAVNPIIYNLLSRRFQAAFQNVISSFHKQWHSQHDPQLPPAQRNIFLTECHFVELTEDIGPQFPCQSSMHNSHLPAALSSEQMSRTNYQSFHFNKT
T7 sequence (P30989 whole entry, species assumed): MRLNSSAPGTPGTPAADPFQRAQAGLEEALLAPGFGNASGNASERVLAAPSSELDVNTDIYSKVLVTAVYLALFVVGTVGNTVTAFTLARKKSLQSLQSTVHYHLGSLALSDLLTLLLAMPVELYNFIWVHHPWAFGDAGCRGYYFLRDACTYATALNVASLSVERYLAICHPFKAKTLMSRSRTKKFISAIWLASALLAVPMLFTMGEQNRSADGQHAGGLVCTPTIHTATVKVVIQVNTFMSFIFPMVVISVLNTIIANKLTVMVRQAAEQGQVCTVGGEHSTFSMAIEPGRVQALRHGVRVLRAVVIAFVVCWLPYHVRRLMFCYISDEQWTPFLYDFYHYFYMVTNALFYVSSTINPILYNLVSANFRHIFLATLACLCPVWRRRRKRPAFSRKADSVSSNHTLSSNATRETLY
T3 sequence (O95665 whole entry, species assumed): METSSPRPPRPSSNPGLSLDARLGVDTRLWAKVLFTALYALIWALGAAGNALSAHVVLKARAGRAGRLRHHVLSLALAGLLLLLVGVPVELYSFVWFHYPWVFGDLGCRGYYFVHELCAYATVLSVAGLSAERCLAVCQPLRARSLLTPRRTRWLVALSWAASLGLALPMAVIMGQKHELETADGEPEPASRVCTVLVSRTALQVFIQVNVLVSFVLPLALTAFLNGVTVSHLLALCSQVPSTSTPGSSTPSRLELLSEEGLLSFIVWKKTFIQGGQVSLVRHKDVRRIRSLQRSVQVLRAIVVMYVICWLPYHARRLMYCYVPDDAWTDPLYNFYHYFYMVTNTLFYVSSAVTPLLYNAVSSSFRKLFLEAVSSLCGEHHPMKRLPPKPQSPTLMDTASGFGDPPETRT

CCCCCCCC(=O)NCCCC[C@H](NC(=O)[C@@H](N)Cc1cn(C(c2ccccc2)c2ccccc2)cn1)C(=O)N[C@H](Cc1ccc(C)cc1)C(=O)N[C@@H](Cc1ccc(O)cc1)C(=O)O [HKFY-34, ((R)-2-((S)-2-((S)-2-amino-3-(1-benzhydryl-1H-imidazol-4-yl)propanamido)-6-octanamidohexanamido)-3-(p-tolyl)propanoyl)-L-tyrosine]
inhibitory effect on the reduction of colon length ([1]; 10 mg/kg intraperitoneal for 5 days, FIG. 92): not observed | effect of reducing inflammatory damage of colon tissue (H&E staining) ([1]; 10 mg/kg intraperitoneal for 5 days, FIG. 95): not observed | inhibitory effect on body weight loss ([1]; 10 mg/kg intraperitoneal once a day for 5 days, 3% DSS, FIG. 91): no inhibitory effect | effect of alleviating stool consistency ([1]; 10 mg/kg intraperitoneal, vs negative control, FIG. 93): not observed | effect of alleviating blood in stool ([1]; 10 mg/kg intraperitoneal, vs negative control, FIG. 94): not observed | ECmax (−fold induction over basal) (GPR39): 22.39 ± 4.59 fold induction over basal | Reporter gene assay ECmax (−fold induction over basal) (GPR39): 22.39 ± 4.59 fold induction over basal | activity level for GPR39 (in words) (GPR39; comment on Table 3): higher activity level than other HKFY derivatives | activity and ECmax value for GPR39 (in words) (GPR39; comment on Table 3, derivatives composed of d-Phe(methyl)): most excellent activity and high ECmax value | activity for MTLR (motilin receptor (MTLR)): very low | activity for NTSR2 [2]: very low | activity for TRHR [3]: very low | activity for NMU2 [4]: very low | activity for NMU1 [5]: very low | activity for NTSR1 [6]: very low | activity for GHSR (ghrelin receptor (GHSR)): very low
